# Test results taken from ChEMBL document CHEMBL1201862, “PubChem BioAssay data set” (2004).
# Calls of active or inactive are those of the source.
# What was measured:
# fMet-Leu-Phe receptor = fMet-Leu-Phe receptor (Homo sapiens, UniProt P21462); assay: FPR ligands, dose response (AID 519); format: functional
# [1] = ADAM10 inhibitors, peptide cleavage, dose response, biochemical, QFRET (AID 743254);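 note: ADAM10 enzyme with the DM2 quenched FRET peptide as substrate; EDANS fluorescence gain as the protease cuts the substrate; inhibitor potency against ADAM10 proteolytic activity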
# [2] = target: Disintegrin and metalloproteinase domain-containing protein 17 (Homo sapiens, UniProt P78536); assay: ADAM17 protease inhibitors, dose response, counter-screen for ADAM10 exosite inhibitor project, biochemical, quenched FRET substrate (AID 743253)
# Chain of Disintegrin and metalloproteinase domain-containing protein 17 (P78536 whole entry, the tested form may be a part): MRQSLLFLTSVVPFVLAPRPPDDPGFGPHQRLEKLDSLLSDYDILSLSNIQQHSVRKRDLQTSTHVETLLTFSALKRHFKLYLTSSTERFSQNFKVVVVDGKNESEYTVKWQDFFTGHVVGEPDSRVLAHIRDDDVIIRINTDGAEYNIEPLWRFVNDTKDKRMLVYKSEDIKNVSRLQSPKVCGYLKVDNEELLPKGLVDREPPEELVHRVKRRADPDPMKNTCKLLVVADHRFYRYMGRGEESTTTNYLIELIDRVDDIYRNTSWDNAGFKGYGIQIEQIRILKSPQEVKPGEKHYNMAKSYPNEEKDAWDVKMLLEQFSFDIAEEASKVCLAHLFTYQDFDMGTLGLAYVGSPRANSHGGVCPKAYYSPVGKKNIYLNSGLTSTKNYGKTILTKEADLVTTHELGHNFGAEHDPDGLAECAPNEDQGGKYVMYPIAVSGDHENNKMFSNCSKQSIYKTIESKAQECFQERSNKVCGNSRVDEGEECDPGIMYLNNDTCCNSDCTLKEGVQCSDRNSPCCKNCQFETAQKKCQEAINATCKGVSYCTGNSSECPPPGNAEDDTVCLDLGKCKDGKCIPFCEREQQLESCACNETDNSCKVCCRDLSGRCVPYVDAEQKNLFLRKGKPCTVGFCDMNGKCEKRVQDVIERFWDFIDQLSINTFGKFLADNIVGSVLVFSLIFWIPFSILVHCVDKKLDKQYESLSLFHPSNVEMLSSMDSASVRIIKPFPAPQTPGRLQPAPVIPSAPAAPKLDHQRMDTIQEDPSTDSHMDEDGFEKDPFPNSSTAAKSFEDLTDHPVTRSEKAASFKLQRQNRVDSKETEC
# [3] = Luminescence Cell-Based Dose Response HTS to Identify Activators of Luciferase Translation or Activity in H4 […] Cells. [Related pubchem assays: 1829 (Project Summary), 1814 (Primary HTS)]; format: functional
# [4] = Counterscreen for inhibitors of Trypanosoma brucei methionyl tRNA synthetase (MetRS): Luminescence-based cell-based high throughput dose response assay to identify compounds that are cytotoxic to Jurkat human T lymphocyte cells.; format: functional
# [5] = Luminescence Cell-Based Dose Confirmation HTS to Identify Activators of 5'UTR Stem-Loop Driven Alpha-Synuclein mRNA Translation in H4 Neuroglioblastoma Cells. [Related pubchem assays: 1829 (Project Summary), 1814 (Primary HTS)]; format: functional
# H4 = assay: Luminescence Cell-Based Dose Response HTS to Identify Activators of 5'UTR Stem-Loop Driven Prion Protein mRNA Translation in H4 Neuroglioblastoma Cells. [Related pubchem assays: 1829 (Project Summary), 1814 (Primary HTS)]; format: functional; conditions: Homo sapiens
# [6] = target: T1, Methionyl-tRNA synthetase, putative (Trypanosoma brucei brucei, UniProt Q38C91); format: functional, Trypanosoma brucei brucei strain 927/4 GUTat10.1;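 note: Read-out by fluorescence polarization, run as a confirmatory high-throughput counterscreen; potency of MetRS inhibitors measured by reduced AMP formation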
# T1 sequence (Q38C91 whole entry): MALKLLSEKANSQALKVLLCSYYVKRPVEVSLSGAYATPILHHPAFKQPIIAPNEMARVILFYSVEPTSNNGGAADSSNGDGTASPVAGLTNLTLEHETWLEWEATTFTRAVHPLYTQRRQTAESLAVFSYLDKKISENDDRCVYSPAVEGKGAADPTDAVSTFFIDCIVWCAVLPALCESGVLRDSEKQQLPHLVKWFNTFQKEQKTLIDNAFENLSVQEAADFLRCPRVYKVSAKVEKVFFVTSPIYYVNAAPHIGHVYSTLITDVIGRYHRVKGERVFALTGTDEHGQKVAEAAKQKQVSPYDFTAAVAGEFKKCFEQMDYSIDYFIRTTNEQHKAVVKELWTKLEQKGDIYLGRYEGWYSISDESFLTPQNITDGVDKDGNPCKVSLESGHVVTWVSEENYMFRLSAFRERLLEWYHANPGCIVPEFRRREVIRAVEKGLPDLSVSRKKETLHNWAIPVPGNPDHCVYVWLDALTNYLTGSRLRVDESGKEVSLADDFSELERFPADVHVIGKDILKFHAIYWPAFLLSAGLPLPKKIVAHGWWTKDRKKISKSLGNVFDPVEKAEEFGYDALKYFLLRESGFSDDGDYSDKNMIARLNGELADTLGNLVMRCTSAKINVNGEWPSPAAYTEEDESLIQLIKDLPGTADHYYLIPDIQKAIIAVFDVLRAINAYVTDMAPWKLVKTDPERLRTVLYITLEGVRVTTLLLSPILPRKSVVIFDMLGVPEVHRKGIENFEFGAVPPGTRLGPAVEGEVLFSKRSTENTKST
# [7] = target: T2, Corticotropin-releasing factor receptor 2/Corticotropin-releasing factor-binding protein (Homo sapiens, UniProt P24387+Q13324); assay: activators of CRF receptor 2 with binding protein – uHTS hits, confirmation (AID 602473); format: functional; conditions: read-out: EC50_Mean
# T2 sequence (Q13324 whole entry): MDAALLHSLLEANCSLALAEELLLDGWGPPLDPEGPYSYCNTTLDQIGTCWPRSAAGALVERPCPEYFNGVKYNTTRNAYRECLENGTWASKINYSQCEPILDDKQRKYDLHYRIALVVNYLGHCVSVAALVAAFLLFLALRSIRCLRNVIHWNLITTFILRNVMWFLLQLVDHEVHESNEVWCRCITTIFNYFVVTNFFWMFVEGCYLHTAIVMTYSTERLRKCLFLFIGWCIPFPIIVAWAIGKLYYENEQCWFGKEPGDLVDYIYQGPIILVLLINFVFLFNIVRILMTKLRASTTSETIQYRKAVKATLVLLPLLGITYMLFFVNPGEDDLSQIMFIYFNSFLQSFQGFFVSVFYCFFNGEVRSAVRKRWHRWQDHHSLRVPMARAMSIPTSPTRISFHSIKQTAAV
# T2 sequence (P24387 whole entry): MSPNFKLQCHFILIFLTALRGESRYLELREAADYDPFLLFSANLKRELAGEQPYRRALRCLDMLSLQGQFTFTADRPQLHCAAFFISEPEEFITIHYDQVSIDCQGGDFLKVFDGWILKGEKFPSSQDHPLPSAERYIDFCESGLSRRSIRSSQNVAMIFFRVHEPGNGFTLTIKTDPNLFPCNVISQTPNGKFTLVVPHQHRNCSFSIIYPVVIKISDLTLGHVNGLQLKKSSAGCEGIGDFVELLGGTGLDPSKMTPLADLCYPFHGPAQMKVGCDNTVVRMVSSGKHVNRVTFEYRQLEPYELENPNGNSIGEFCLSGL
# [8] = target: T3, Scavenger receptor class B member 1 (Mus musculus, UniProt Q61009); assay: inhibitors of SR-BI dependent HDL uptake, dose response, ldlA[mSR-BI] CHO cells, fluorescence plate reader, dry powder, set 9 (AID 623880); format: functional, cell-based
# T3 sequence (Q61009 whole entry): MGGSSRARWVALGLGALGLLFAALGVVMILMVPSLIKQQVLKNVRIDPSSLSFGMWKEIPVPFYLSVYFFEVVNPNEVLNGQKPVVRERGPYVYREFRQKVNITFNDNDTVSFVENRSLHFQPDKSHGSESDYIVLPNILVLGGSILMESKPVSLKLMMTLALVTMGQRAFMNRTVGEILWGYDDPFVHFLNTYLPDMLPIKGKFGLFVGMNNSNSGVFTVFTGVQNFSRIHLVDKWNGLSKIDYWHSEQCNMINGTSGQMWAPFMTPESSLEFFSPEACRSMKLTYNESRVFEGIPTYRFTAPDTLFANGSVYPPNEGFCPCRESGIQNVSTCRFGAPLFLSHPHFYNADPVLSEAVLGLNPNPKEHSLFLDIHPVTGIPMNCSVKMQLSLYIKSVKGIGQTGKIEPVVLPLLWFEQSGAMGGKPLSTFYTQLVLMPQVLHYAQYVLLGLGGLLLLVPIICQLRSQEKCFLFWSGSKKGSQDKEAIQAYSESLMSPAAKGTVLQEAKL
# [9] = target: T3, Scavenger receptor class B member 1; assay: inhibitors of SR-BI-mediated HDL uptake, dose response, cell-based, ldlA[mSR-BI] CHO, DiI fluorescence, dry powder, set 10 (AID 624029); format: functional
# [10] = target: DNA repair and recombination protein RAD54-like (Homo sapiens, UniProt Q92698); assay: inhibitors of human RAD54 branch migration, confirmation, biochemical, fluorescence, cherry-picked samples, dose series (AID 651657); format: functional
# Chain of DNA repair and recombination protein RAD54-like (Q92698 whole entry): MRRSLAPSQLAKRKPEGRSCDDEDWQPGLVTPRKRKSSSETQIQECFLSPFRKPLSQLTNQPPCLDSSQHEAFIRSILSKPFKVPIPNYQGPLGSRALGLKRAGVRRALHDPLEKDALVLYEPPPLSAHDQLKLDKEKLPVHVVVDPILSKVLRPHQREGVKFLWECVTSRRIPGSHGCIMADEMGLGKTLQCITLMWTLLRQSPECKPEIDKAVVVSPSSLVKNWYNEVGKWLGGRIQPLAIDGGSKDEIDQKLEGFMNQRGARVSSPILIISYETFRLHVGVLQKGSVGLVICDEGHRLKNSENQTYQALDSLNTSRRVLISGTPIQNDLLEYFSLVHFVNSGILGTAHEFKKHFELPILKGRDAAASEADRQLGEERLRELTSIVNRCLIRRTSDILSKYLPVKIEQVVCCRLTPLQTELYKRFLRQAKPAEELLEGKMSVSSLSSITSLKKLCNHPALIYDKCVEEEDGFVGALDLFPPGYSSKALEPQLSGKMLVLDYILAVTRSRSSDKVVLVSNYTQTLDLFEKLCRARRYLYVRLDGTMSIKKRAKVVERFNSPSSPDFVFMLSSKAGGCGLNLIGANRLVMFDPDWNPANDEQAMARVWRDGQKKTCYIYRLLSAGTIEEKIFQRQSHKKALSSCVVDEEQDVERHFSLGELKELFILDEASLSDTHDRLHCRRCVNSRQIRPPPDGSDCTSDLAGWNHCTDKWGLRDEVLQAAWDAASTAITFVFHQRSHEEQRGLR
# [11] = target: T4, DNA repair protein RAD52 homolog (Homo sapiens, UniProt P43351); format: functional, biochemical
# T4 sequence (P43351 whole entry): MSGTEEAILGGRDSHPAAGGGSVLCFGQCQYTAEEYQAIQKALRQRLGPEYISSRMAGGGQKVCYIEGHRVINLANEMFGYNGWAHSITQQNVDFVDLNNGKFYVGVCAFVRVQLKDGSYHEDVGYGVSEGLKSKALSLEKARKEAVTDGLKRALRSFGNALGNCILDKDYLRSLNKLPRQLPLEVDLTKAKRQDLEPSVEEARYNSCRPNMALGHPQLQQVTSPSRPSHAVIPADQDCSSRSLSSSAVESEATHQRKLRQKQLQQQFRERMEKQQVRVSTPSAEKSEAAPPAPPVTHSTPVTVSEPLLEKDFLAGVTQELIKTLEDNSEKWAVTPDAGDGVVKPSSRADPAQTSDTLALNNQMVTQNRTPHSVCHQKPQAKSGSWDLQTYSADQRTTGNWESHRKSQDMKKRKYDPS
# Cytochrome P450 3A4 = Cytochrome P450 3A4 (Homo sapiens, UniProt P08684);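 note: CYP3A4 tested as one member of a cytochrome P450 panel screen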
# Chain of Cytochrome P450 3A4 (P08684 whole entry): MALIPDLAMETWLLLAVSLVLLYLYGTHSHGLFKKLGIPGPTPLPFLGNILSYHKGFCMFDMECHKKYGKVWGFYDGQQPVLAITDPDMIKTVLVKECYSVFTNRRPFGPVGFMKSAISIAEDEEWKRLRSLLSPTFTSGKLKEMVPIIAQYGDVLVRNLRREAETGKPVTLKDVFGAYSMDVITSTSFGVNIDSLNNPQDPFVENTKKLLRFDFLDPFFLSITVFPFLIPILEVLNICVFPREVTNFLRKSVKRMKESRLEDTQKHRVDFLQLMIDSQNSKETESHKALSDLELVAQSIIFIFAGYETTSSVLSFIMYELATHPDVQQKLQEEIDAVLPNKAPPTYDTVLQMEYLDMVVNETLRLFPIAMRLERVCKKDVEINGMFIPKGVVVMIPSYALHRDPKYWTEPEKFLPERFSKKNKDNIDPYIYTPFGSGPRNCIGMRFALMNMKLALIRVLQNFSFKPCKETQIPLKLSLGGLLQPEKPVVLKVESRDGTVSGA
# Cytochrome P450 2C9 = Cytochrome P450 2C9 (Homo sapiens, UniProt P11712)
# Chain of Cytochrome P450 2C9 (P11712 whole entry): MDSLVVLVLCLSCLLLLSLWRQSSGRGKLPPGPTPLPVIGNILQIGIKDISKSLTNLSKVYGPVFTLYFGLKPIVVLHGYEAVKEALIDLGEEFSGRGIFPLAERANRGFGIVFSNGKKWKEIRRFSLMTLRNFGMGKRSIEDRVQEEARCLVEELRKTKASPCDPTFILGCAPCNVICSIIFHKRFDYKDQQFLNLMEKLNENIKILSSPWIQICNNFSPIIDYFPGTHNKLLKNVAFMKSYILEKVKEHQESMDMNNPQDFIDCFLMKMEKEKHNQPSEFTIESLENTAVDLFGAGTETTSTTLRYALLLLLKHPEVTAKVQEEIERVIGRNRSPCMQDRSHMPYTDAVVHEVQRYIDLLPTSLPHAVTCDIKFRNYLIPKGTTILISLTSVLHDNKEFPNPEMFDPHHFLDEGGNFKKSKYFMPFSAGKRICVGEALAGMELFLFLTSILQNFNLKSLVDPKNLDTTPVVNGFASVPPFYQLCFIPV
# cells [12] = format: functional, cell-based
# [13] = target: T5, Trace amine-associated receptor 1 (Homo sapiens, UniProt Q96RJ0); assay: Counterscreen for agonists of the human trace amine associated receptor 1 (hTAAR1): Fluorescence-based cell-based high throughput dose response assay to identify hTAAR1 agonist that also desensitize TAAR1 receptor response.; format: functional
# T5 sequence (Q96RJ0 whole entry): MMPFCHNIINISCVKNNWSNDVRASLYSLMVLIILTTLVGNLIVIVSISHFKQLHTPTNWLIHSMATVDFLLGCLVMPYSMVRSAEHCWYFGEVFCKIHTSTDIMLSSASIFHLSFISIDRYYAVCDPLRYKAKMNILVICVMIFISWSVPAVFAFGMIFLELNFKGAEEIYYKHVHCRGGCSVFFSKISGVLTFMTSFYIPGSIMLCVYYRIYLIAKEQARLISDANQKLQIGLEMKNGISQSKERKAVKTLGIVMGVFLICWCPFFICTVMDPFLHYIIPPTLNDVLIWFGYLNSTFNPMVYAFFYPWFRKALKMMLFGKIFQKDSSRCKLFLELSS
# [14] = target: T5, Trace amine-associated receptor 1; assay: Fluorescence-based cell-based high throughput dose response assay to identify agonists of the human trace amine associated receptor 1 (TAAR1).; format: functional
# cells [15] = format: functional, cell-based; remark: listed apart in the source
# [16] = target: Fructose-bisphosphate aldolase (Mycobacterium tuberculosis, UniProt P9WQA3); assay: Fluorescence-based biochemical high throughput dose response assay for inhibitors of the fructose-bisphosphate aldolase (FBA) of M. tuberculosis.; format: functional
# Chain of Fructose-bisphosphate aldolase (P9WQA3 whole entry): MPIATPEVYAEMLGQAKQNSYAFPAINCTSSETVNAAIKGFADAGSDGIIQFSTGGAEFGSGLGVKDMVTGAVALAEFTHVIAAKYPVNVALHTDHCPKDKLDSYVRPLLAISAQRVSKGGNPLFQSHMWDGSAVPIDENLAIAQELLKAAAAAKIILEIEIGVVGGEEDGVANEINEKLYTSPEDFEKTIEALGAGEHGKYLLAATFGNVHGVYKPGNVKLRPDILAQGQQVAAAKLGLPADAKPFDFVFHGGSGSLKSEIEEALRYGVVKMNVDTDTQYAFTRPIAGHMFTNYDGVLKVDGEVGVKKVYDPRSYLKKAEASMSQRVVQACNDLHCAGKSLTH
# [17] = LGR2 antagonists, dose response, cell-based, HEK293, CRE-luciferase reporter, cherry pick, set 2 (AID 743343); format: functional;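 note: transfected cells were stimulated with diluted bursicon conditioned medium after compound addition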
# [18] = A549 cell cytotoxicity, dose response, cytotoxicity control, plate reader, cherry-pick, antagonist series (AID 743412); format: functional, cell-based
# [19] = HepG2 cell cytotoxicity, dose response, cytotoxicity control, plate reader, cherry-pick, antagonist series (AID 743416); format: functional, cell-based
# [20] = cytotoxicity in OVCAR8 ovarian cancer cells, dose response, PAX8 project, cell-based, plate reader, dry powder samples (AID 743197); format: functional; conditions: OVCAR-8
# [21] = IGROV1 ovarian cancer cell cytotoxicity, dose response, PAX8 inhibitor project, plate reader, dry powder samples (AID 743043); format: functional, cell-based; conditions: IGROV-1
# Paired box protein Pax-8 = Paired box protein Pax-8 (Homo sapiens, UniProt Q06710); assay: inhibitors of PAX8-driven TPO luciferase reporter, dose response, RMG-I cells, cherry-pick (AID 687027); format: functional, cell-based;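 note: luciferase reporter driven by Pax8 target thyroperoxidase promoter measured by SteadyGlo luminescence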
# Chain of Paired box protein Pax-8 (Q06710 whole entry): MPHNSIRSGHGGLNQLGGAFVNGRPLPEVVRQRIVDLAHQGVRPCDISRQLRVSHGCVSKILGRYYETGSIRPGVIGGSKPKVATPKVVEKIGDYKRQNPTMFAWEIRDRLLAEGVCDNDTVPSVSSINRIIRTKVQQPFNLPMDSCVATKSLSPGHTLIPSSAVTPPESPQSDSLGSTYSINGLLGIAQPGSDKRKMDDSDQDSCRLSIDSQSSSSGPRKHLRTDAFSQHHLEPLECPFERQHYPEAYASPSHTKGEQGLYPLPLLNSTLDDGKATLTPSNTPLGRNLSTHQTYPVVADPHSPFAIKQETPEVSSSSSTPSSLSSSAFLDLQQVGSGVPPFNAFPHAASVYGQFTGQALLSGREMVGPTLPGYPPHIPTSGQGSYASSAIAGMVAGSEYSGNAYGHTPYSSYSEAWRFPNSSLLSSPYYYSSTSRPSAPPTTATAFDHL
# cells [22] = conditions: A549
# Chain of fMet-Leu-Phe receptor (P21462 whole entry): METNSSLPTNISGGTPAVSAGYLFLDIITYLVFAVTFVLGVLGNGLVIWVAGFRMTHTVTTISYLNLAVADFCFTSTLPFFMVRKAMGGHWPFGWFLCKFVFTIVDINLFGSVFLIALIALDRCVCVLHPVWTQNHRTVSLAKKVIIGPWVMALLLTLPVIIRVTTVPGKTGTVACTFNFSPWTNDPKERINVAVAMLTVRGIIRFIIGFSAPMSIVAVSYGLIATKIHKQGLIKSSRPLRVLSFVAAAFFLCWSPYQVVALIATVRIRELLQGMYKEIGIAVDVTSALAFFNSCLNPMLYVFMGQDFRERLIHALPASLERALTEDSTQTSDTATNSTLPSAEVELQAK
compound,measurement,setting,value
CCOc1ccc(C2C(C(=O)c3ccco3)=C(O)C(=O)N2CCCn2ccnc2)cc1 (stereo unspecified),Ki,fMet-Leu-Phe receptor,9.9 µM (active)
O=C(C1CCC(Cn2c(=S)[nH]c3ccccc3c2=O)CC1)N1CCN(c2ccccc2)CC1 (stereo unspecified),IC50,[1],> 69.5 µM (inactive)
same,IC50,[2],> 69.5 µM (inactive)
Cc1ccc2[nH]c(-c3ccc(SCC(=O)Nc4ccc5c(c4)OCCO5)nc3)nc2c1,EC50,[3],1.99 µM (active)
same,IC50,[4],83.3 µM (inactive)
same,EC50,[5],1.13 µM (active)
same,EC50,H4,11.3 µM (active)
Cc1ccc2nc(-c3ccc(SCC(=O)Nc4ccc5c(c4)OCCO5)nc3)[nH]c2c1,IC50,[6],21.5 µM (inactive)
O=C1C2C3C=CC(C3)C2C(=O)N1c1cccc(N2C(=O)C3C4C=CC(C4)C3C2=O)n1 (stereo unspecified),EC50,[7],> 53 µM (inactive)
same,AC50,[8],45.2 µM (active)
same,AC50,[9],> 70 µM (inactive)
Cc1cc(C)c2c(c1)c1nnc(SCCN3CCCCC3)nc1n2C,AC50,[10],11 µM (active)
same,AC50,[11],6.11 µM (active)
CCOc1cccc(C(=O)C2=C(O)C(=O)N(Cc3ccco3)C2c2ccncc2)c1 (stereo unspecified),AC50,Cytochrome P450 3A4,22.4 µM (inconclusive)
same,Ki,fMet-Leu-Phe receptor,> 66.7 µM (inactive)
same,AC50,Cytochrome P450 2C9,14.1 µM (inconclusive)
Cc1cccc(CCNCc2cc3ccc(C)cc3nc2O)c1,IC50,cells [12],> 29.9 µM (inactive)
same,IC50,[13],7.79 µM (active)
same,EC50,[14],3.44 µM (active)
same,EC50,cells [15],24.9 µM (inactive)
O=C(c1ccccc1)c1ccc(OCC(O)CN2CCOCC2)cc1 (stereo unspecified),IC50,[16],> 9.99 µM (inactive)
COc1ccc(NC(=O)Cn2nnc(-c3ccccc3)c2COc2ccc3ccccc3c2)cn1,IC50,[1],> 7.72 µM (active)
same,IC50,[2],> 69.5 µM (inactive)
CCCCn1nnnc1C(c1cc2ccccc2o1)N1CCN(c2ccncc2)CC1 (stereo unspecified),AC50,[17],40.1 µM (active)
same,AC50,[18],32.6 µM (active)
same,AC50,[19],> 52 µM (inactive)
C[C@@H]1CN([C@H](C)CO[Si](C)(C)C(C)(C)C)C(=O)c2cc(NC(=O)C3CCCCC3)ccc2O[C@H]1CN(C)C(=O)c1ccc(Cl)cc1,AC50,[8],> 70 µM (inactive)
same,AC50,[9],> 70 µM (inactive)
COC(=O)[C@]12C[C@H](CC(=O)NCCc3ccccc3OC)C(=O)N(Cc3ccccc3)C1=C[C@H](C(C)(C)C)O[C@@H]2C,IC50,cells [12],> 29.9 µM (inactive)
same,IC50,[13],7.35 µM (active)
same,EC50,[14],2.45 µM (active)
same,EC50,cells [15],> 29.9 µM (inactive)
C[C@@H]1CCCCO[C@@H](CN(C)Cc2ccc(C(F)(F)F)cc2)[C@H](C)CN([C@@H](C)CO)C(=O)c2cc(NS(=O)(=O)c3ccc(F)cc3)ccc2O1,AC50,[20],> 70 µM (inactive)
same,AC50,[21],55.8 µM (active)
same,AC50,Paired box protein Pax-8,5.83 µM (active)
O=[N+]([O-])c1cccc(Nc2c3ccccc3nc3ccccc23)c1,AC50,cells [22],46.4 µM (active)
